{"source": "patent US20250361217A1", "about": "“FATTY ACID COMPOUNDS” (University of Pittsburgh - Of the Commonwealth System of …, priority 2022, published 2025)", "key": {"[1]": {"set-up": "species or system mice", "conditions": "mouse, in vivo", "method": "Male C57BL/6J (12 weeks old) mice were used to measure the absorption and metabolism of FuFA. In this procedure, I1D3 (50 mg/kg), I 1U3 (50 mg/kg), I1U3-2M (50 mg/kg) and D31-palmitic acid (10 mg/kg) were administered simultaneously (cassette dosing) to single animal. Consequently, the relative pharmacokinetics of multiple compounds can be assessed rapidly with a small number of experimental animals. The compounds were injected either intraperitoneally (n=5) or by gavage (n=5). At 1, 2 and 4h after injection, a small incision on the tail vein was performed and microhematocrit capillary tubes (FisherBrand, #22-362566) were used to collect serial blood samples ([…] per collection). At 6h, mice were anesthetized, and blood was collected from the vena cava in a terminal blood draw. Blood samples were processed as described above to collect plasma. The pharmacokinetics (PK) of free FuFAs and D31-palmitic acid and their esters found in complex lipids were evaluated using 10 μl of plasma. Briefly, 20 μl of water were added to the […] of plasma and divided into 2 glass tubes. The sample in one tube was measured as is using GC-MS upon derivatization and the other sample was hydrolyzed before derivatization and quantification. […] For the total FA quantification, basic hydrolysis was performed using 500 μl of 1M KOH in MeOH and incubated for 1 h at 60° C. […]"}, "[2]": {"test_system": "liver of HFD mice", "assay": "Untargeted/targeted metabolomic mass spectrometry of liver (sphingolipids, acylcarnitine)", "type": "in vivo", "method": "Liver powder (50 mg) was resuspended in 500 μL of H2O and extracted using ethyl acetate (1 mL). Phases were separated by centrifugation for 5 min at 1500 g at 4° C. and the organic phase was collected and dried under nitrogen gas. For acetonitrile precipitation, 200 μL of ice-cold ACN was added to liver tissue homogenized in water and vortexed thoroughly. Samples were centrifuged for 5 min at 1500 g at 4° C. and all the phases were removed and dried under nitrogen gas. Dried samples were reconstituted with McOH and transferred to clean mass spectrometry vials for analysis.\nMass spectrometry data was collected using a Q Exactive Orbitrap (ThermoFisher Scientific) to obtain high-resolution accurate mass data in positive and negative ion modes. Two different Chromatography system were used: The organic phase from Bligh and Dyer extraction sample was performed using a 100×2 mm Luna® 5 μm C18(2) column (phenomenex,00D-4252-BO) with a 0-100% gradient of solvent B (90:10 isopropyl alcohol, ACS reagent for HPLC (Honeywell #AH323):ACN, 0.1% formic acid, reagent grade (Sigma #F0507) and solvent A (70:30 Water, Optima™ LC/MS Grade (Fisher #W6500):acetonitrile, 0.1% formic acid) over 20 min, followed by 100% solvent B for 6 min before a return to 0% solvent B for 4 min at a flow rate of 0.650 mL/min. Chromatography for aqueous Bligh and Dyer phase and acetonitrile precipitation extract was performed using the same column with a gradient of 10-100% solvent D (ACN, 0.1% formic acid) and solvent C (water, 0.1% formic acid) over 18 min, followed by 100% solvent D for 6 min before returning to 10% solvent D for 6 min at a flow rate of 0.650 mL/minute. […]\nCeramide and carnitine conjugates were extracted in the presence of ceramide standard (18:1/17:0) (N-heptadecanoyl-D-erythro-sphingosine, Avanti Polar Lipids #860517) using ethyl acetate and quantified using mass spectrometry.\nMass spectrometry data was collected using an API 5000 LC/MS/MS in positive ion mode. […] Quantitation of analyte and internal standard peak areas was determined using the Quantitation Wizard in Sciex's Analyst® Software."}}}
{"smiles": "CCCc1ccc(CCCCCCCCCC(C)(C)C(=O)O)o1", "note": "[11U3-2M, 2,2-Dimethyl-11-(5-propylfuran-2-yl)undecanoic acid]", "values": [{"measurement": "absorption pathway", "setting": "[1]", "value": "absorbed through the hepatic portal vein"}, {"measurement": "oral stability (half-lives) compared with natural FuFAs", "setting": "[1]; po, 50 mg/kg", "value": "longer half-lives"}, {"measurement": "liver metabolites changed by HFD (untargeted metabolomics)", "setting": "[2]; 50 mg/kg", "value": "returned the liver to its basal condition"}, {"measurement": "liver sphingomyelins SM(18:1/16:0), SM(18:1/20:0), SM(18:1/24:0) vs HFD+veh", "setting": "[2]; effect relative to that on ceramides", "value": "analogous"}, {"measurement": "liver ceramides (e.g. Cer(18:1/16:0), Cer(18:1/20:0), total ceramide) vs HFD+veh", "setting": "[2]; targeted quantification", "value": "significant reduction"}]}
